In patent publication US20250177426A1, “METHODS AND COMPOSITIONS FOR TREATING DEMENTIA” (Cognitive Synergy Corporation, priority 2023, published 2025):
Values joined by “and” are separate entries in the source; they are usually repeats but may differ in a detail not shown here. Equal values may be shown once.

Columns and labels:
Aβ protein = target: T1, Aβ protein (Homo sapiens, UniProt P05067); assay: Aβ fibrillization, percent of control; type: biochemical; conditions: for Aβ fibrillization as compared to control: FIG. 7; for Aβ fibrillization as compared to the control: FIG. 12; for fibrillization of Aβ protein: FIG. 9, control = 100
T1 construct: The bar graph 700 includes a control sample with 10 μM Aβ protein
Protocol: Referring to FIG. 7, FIG. 7 is a bar graph 700 showing a percentage of Aβ fibrillization as compared to a control for neoliquiritin, sebiricose A5, (Z)SA glycoside, and (E)SA glycoside. The bar graph 700 includes a control sample with 10 μM Aβ protein. The amount of Aβ fibrillization in the control sample is normalized to 100%. All other samples in the bar graph 700 include 10 μM Aβ protein and another compound at a concentration of 100 μM.
Referring to FIG. 8, FIG. 8 is a bar graph 800 showing a percentage of Aβ fibrillization as compared to a control for neoliquiritin samples of various concentrations. The amount of Aβ fibrillization in the control sample is normalized to 100%. All other samples in the bar graph 800 include 10 μM Aβ protein and a variable concentration of neoliquiritin.
Referring to FIG. 9, FIG. 9 is a bar graph 900 showing a percentage of Aβ fibrillization as compared to a control for neoliquiritin and liquiritigenin samples of various concentrations. Like the other bar graphs, the control sample is on the left side of the bar graph 900. The control sample comprises 10 μM Aβ protein and the percent fibrillization of Aβ protein in the control sample is normalized to 100. All other samples, which contain either neoliquiritin or liquiritigenin, also include a concentration of 10 μM Aβ protein.
Referring to FIG. 12, FIG. 12 is a bar graph 1200 showing a percentage of Aβ fibrillization as compared to a control for sinapic acid, trans-sinapic acid, and sinapic acid O-glucoside at various concentrations. On the left side of the bar graph 1200, a control sample comprising 10 μM Aβ protein has a fibrillization measurement normalized to 100. All other samples include the same concentration of 10 μM Aβ protein as a control sample.

SH-SY5Y cells = assay: Survival of SH-SY5Y cells in solutions of Aβ; type: cell-based; conditions: FIG. 11, Aβ-only control 69%
Protocol: Referring to FIG. 10, FIG. 10 is a bar graph 1000 showing a percentage of survival of SH-SY5Y cells in solutions of Aβ and various concentrations of neoliquiritin. […] All the samples in the bar graph 1000 comprised the same concentration of 10 μM Aβ protein as the control sample as well as a variable concentration of neoliquiritin.
Referring to FIG. 11, FIG. 11 is a bar graph 1100 showing a percentage of survival of SH-SY5Y cells in solutions of neoliquiritin, isoliquiritigenin, isoliquiritin, sinapic acid O-glucoside, trans-sinapic acid, and liquiritigenin at various concentrations. […] The other samples in the bar graph 1100 all contain the same concentration of 10 μM Aβ protein as a control sample.

Aβ fibrils = target: T2, Aβ fibrils (Homo sapiens, UniProt P05067); assay: Relative fluorescence of prefibrillated Aβ after timed treatment; type: biochemical; conditions: FIG. 14, 50 μM compound
T2 construct: The bar graph 700 includes a control sample with 10 μM Aβ protein
Text: Control samples containing only Aβ protein as starting material are unshaded. Other samples containing Aβ protein and an additional compound have shading according to the legend on the bottom of the bar graphs 1400.

[1] = 10 μM Aβ protein and 100 μM compound
[2] = 10 μM Aβ protein and 1 μM compound
[3] = 10 μM Aβ protein and 10 μM compound
[4] = 10 μM Aβ protein and 100 nM compound

T2 sequence (P05067 672-711 limits assumed): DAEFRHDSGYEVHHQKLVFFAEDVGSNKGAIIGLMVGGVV
T1 sequence (P05067 672-711 limits assumed): as above

COc1cc(/C=C/C(=O)O)cc(OC)c1O[C@@H]1O[C@H](O)[C@@H](O)[C@H](O)[C@H]1O [(E)SA glycoside]
Aβ fibrillization as compared to control (Aβ protein; [1]): 51%

O=C(/C=C/c1ccc(O)cc1)c1ccc(O)cc1O [isoliquiritigenin]
survival for the SH-SY5Y cells (SH-SY5Y cells; [2]): 84%
survival for the SH-SY5Y cells (SH-SY5Y cells; [3]): 81%

COc1cc(/C=C/C(=O)O)cc(OC)c1O [SA, sinapic acid, reference compound]
Aβ fibrillization as compared to the control (Aβ protein; [4]): 105%
Aβ fibrillization as compared to the control (Aβ protein; [2]): 101%
Aβ fibrillization as compared to the control (Aβ protein; [3]): 114%
Aβ fibrillization as compared to the control (Aβ protein; [1]): 85%

Sebiricose A5 [reference compound]
Aβ fibrillization as compared to control (Aβ protein; [1]): 86%

COc1cc(/C=C/C(=O)O)cc(OC)c1O [T-SA, trans-sinapic acid, reference compound]
Aβ fibrillization as compared to the control (Aβ protein; [4]): 98%
Aβ fibrillization as compared to the control (Aβ protein; [2]): 95%
Aβ fibrillization as compared to the control (Aβ protein; [3]): 89%
Aβ fibrillization as compared to the control (Aβ protein; [1]): 79%
survival for the SH-SY5Y cells (SH-SY5Y cells; [2]): 76%
survival for the SH-SY5Y cells (SH-SY5Y cells; [3]): 77%
Relative fluorescence for Aβ fibrils (Aβ fibrils; 46.5 hours, Aβ only approximately 900000): approximately 850000 RFU
Relative fluorescence for Aβ fibrils (Aβ fibrils; 48 hours, Aβ only approximately 1070000): approximately 940000 RFU
Relative fluorescence for Aβ fibrils (Aβ fibrils; 60 hours, Aβ only approximately 1010000): approximately 940000 RFU
Relative fluorescence for Aβ fibrils (Aβ fibrils; 72 hours, Aβ only approximately 980000): approximately 770000 RFU

O=C(/C=C/c1ccc(O[C@@H]2O[C@H](CO)[C@@H](O)[C@H](O)[C@H]2O)cc1)c1ccc(O)cc1O [isoliquiritin]
survival for the SH-SY5Y cells (SH-SY5Y cells; [2]): 72%
survival for the SH-SY5Y cells (SH-SY5Y cells; [3]): 74%

O=C1C[C@@H](c2ccc(O)cc2)Oc2cc(O)ccc21 [liquiritigenin, reference compound]
fibrillization of Aβ protein (Aβ protein; 100 nM compound and 10 μM Aβ protein): 94%
fibrillization of Aβ protein (Aβ protein; 10 μM compound and 10 μM Aβ protein): 92% and 90%
fibrillization of Aβ protein (Aβ protein; 50 μM compound and 10 μM Aβ protein): 97%
fibrillization of Aβ protein (Aβ protein; 100 μM compound and 10 μM Aβ protein): 83%
survival for the SH-SY5Y cells (SH-SY5Y cells; [2]): 67%
survival for the SH-SY5Y cells (SH-SY5Y cells; [3]): 67%
